Read-outs that look alike come from different tables or passages of the source. One block for each compound: values may come before it.
Columns and labels:
[1] = molecular target: T1, pDNA-PK ser2056 induction in HCT116 spheroids (Homo sapiens, UniProt P78527); test: Multicellular tumour spheroid + radiation, pDNA-PK inhibition, HCT116; type: cell-based; conditions: 20 Gy
T1 construct: endogenous in cells; host or cells: HCT116 multicellular tumour spheroids
In short: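 HCT116 spheroids (~0.5 mm) in MEM/10% FBS/10 mM glucose, 20% O2, 37 °C, pre-incubated 1 h with compound (10 or 5 μM down to 3.5 nM), irradiated 20 Gy, incubated 2 h more. Cryosections immunostained for pDNA-PK ser2056; EC50 (μM) for 50% reduction of radiation-induced pDNA-PK.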

HCT116 spheroids = test: Spheroid + radiation colony forming cell survival assay (SF), HCT116; type: cell-based; conditions: Homo sapiens, HCT-116, 8 Gy
Description: (§1) Multicellular tumour spheroids determination of compound inhibition of pDNA-PK induction following radiation. Tumour spheroids were grown to approximately 0.5 mm in diameter and irradiated with 20 Gy in combination with inhibitor test compounds to determine their potency. Inhibitor concentration for 50% reduction in pDNA-PK induction (IC50) was determined via immunohistochemical staining in spheroid cryosections taken 2 hours following radiation. For cell survival endpoint 8 Gy radiation was used and 3 hours following radiation spheroids were dissociated, counted and plated for colony forming endpoint.
Spheroid+radiation colony forming cell survival assay (SF). Radiation 8 Gy. Drug: serial dilution 5 μM down to 10 nM (12 wells×2 repeat). Spheroids: 5-10 spheroids per well ([…]). HCT116. 5% O2 and 5% CO2. 96 well pate format for assay. Protocol: pre incubate 1 hour with drug, irradiate 8 Gy, post incubate 3 hrs with drug, dissociate spheroids and count cells and plate for colony forming assay. Endpoint: wait 4-7 days and count colonies. Analysis: determine EC50 concentration that increase cell kill by 50% over radiation alone.
(§2) Multicellular tumour spheroids were used to determine potency of test compounds in a 3D tissue environment using inhibition of pDNA-PK induction following radiation or cell survival as the endpoint. For the pDNA-PK endpoint HCT116 or FaDU tumour spheroids were grown to approximately 0.5 mm in diameter and irradiated with 20 Gy in combination with inhibitor test compounds to determine their potency. Experiments were carried out in 96 well plates containing 0.7 mls of MEM media containing 10% FBS and 10 mM glucose under 20% O2 & 5% CO2 at 37° C. Following dilution of compounds 1:1000 from DMSO stocks, compounds were serially diluted from 10 μM down to 3.5 nM and 5-10 spheroids added. 96 well plates were constantly stirred to avoid spheroids settling during the course of the experiment. The inhibitor concentration for 50% reduction in pDNA-PK induction (EC50) was determined via immunohistochemical staining in spheroid cryosections taken 2 hours following radiation using anti-pDNA-PK (ser 2056) and fixed immediately in formalin following sectioning. For cell survival endpoint 8 Gy radiation was used and, 3 hours following radiation, spheroids were dissociated, counted and plated for colony forming endpoint. Data presented in the table compound potency as EC50 [μM].

[2] = molecular target: T2, pDNA-PK ser2056 induction in FaDU spheroids (Homo sapiens, UniProt P78527); test: Multicellular tumour spheroid + radiation, pDNA-PK inhibition, FaDU; type: cell-based; conditions: 20 Gy
T2 construct: host or cells: FaDu
Description: as §1
Spheroid+radiation pDNA-PK. Radiation: 20 Gy. Drug: serial dilution 5 or 10 μM down to 3.5 nM (11 wells). Spheroids: 3-6 spheroids per well (300-500 μm diameter). 20% O2 and 5% CO2. 96 well plate format. Endpoint: fluorescent immunostain pDNA-PK ser2056 and image on microscope. Analysis: determine EC50 concentrations that decreases pDNA-PK induction […] after irradiation.
as §2

[3] = molecular target: T3, DNA-PK phosphorylation at Serine 2056 (Homo sapiens, UniProt P78527); test: Cellular Assay for Inhibition of DNA-PK Phosphorylation at Serine 2056 (FaDu cells, neocarzinostatin, sandwich ELISA); type: cell-based
T3 construct: host or cells: FaDu
In short: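 FaDu cells were pretreated with compound (0.3% DMSO) for 1 h, then exposed to neocarzinostatin at 1 μg/mL final for 2 h to induce DSBs. Protein-normalized lysates were assayed by MSD sandwich ELISA for total and pSer2056 DNA-PK. IC50 came from variable-slope fits of % inhibition relative to DMSO and NCS controls.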

DNA-PK = molecular target: T4, DNA-PK (Homo sapiens, UniProt P78527); test: DNA-PK Assay for Biochemical Enzymatic Inhibition (ADP Glo Kinase assay)
T4 construct: purchased Invitrogen PR9107A
In short: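 Human DNA-PK (25 ng) preincubated 15 min with compounds (ten three-fold dilutions) in HEPES pH 7.5, MgCl2, KCl, calf thymus DNA buffer, then substrate 434.4 μM and ATP 64.4 μM (final) for 60 min at room temperature. ADP-Glo luminescence; percent inhibition fitted by four-parameter regression for IC50.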

[4] = Microsomal stability assay, mouse liver microsomes
[5] = tested on: pH2AX induction in HCT116 ATM−/− multicellular tumour spheroids; test: Prodrug radiation sensitization in multicellular tumour spheroids (pH2AX induction following radiation); type: cell-based
Description: Prodrug compounds were assayed to determine their potency in 3D multicellular spheroids in media maintained under 20% vs […]. Multicellular tumour spheroids were grown to approximately 0.5 mm in diameter and irradiated with 20 Gy in combination with inhibitor test compounds to determine their potency using HCT116 and FaDu cell lines. Experiments were carried out in 96 well plates containing 0.7 mls of MEM media containing 10% FBS and 10 mM glucose under […] at 37° C. Following dilution of compounds 1:1000 from DMSO stocks, compounds were serially diluted from 10 μM down to 3.5 nM and 5-10 spheroids added. 96 well plates were constantly stirred to avoid spheroids settling during the course of the experiment. Endpoints were pDNA-PK (ser 2056) or pH2AX (ser 139) status in spheroid cryosections taken 1 or 2 hours following radiation and fixed immediately in formalin. Using tumour cell lines deficient in ATM improved the assay signal to noise and gH2AX readout. Using this assay prodrug activity could be compared in the more oxygenated outer spheroid layers versus less oxygenated hypoxic central cell layers.

FaDu cell line = test: Prodrug activation in hypoxic stirred tumour cell suspensions; type: in vitro ADME; conditions: 10 μM, 4 hours
Description: Prodrug compounds were assayed to determine their stability and rate of activation in stirred cell suspensions under 0.2 vs 5% oxygen. Compounds were diluted 1:1000 from DMSO stocks to 10 μM final concentration in tumour cell suspensions (1% by cell volume) in MEM media containing 10% FBS, 10 mM glucose & 3.7 g/L sodium bicarbonate. Cell lines assayed included A253, A549, Detroit562, FaDu, HCT116, HEP G2, HT29, SCC25, SCC9, SiHa & TC32. Compounds and cells were then incubated for 4 hours under constant mixing at 37° C. under 5% CO2 and either 0.2 or 5% O2. Following the incubation period cellular activation of the compounds was assayed via MeOH extraction and HPLC quantification.

[6] = Example 7, spheroid, cell line HCT115 [sic], 20% O2, read-out: EC50 (pDNA-PK inhibition, immunohistochemical endpoint)
[7] = Example 8, spheroid, read-out: Cell line: HCT116 Immunohistochemical endpoint pDNA-PK inhibition EC50
[8] = Example 9 Study 2, 20% O2, read-out: Spheroid Cell line: HCT116 Immunohistochemical endpoint pDNA-PK inhibition EC50
[9] = Example 8, spheroid, read-out: Cell line: FaDU Immunohistochemical endpoint pDNA-PK inhibition EC50
[10] = Example 9 Study 2, 20% O2, read-out: Spheroid Cell line: FaDU Immunohistochemical endpoint pDNA-PK inhibition EC50
[11] = Homo sapiens, HCT-116, 20 Gy, 5% O2, inner layers, read-out: Prodrug 5% O2 Inner layers EC50
[12] = Homo sapiens, HCT-116, 20 Gy, 5% O2, outer layers, read-out: Prodrug 5% O2 Outer layers EC50
[13] = Homo sapiens, HCT-116, 20 Gy, 20% O2, outer layers, read-out: Prodrug 20% O2 Outer layers EC50
[14] = 20 Gy, 5% O2, inner layers, read-out: Prodrug 5% O2 Inner layers EC50
[15] = 20 Gy, 5% O2, outer layers, read-out: Prodrug 5% O2 Outer layers EC50
[16] = 20 Gy, 20% O2, outer layers, read-out: Prodrug 20% O2 Outer layers EC50
[17] = value of the effector of the listed prodrug, 5% O2, inner layers, read-out: Effector 5% O2 Inner layers EC50

EC50 [1, 6]: 1 to 10 µM
EC50 [1, 7]: 1 to 10 µM
EC50 [1, 8]: 1 to 10 µM
EC50 [2, 9]: 0.5 to 1 µM
EC50 [2, 10]: 0.5 to 1 µM
Structure (SMILES): Brc1cnc2cc(N3CCOCC3)nc(O[C@H]3CC[C@@H](n4ccnc4)CC3)c2c1 [Compound 10, 4-(5-(((1s,4s)-4-(1H-imidazol-1-yl)cyclohexyl)oxy)-3-bromo-1,6-naphthyridin-7-yl)morpholine]
EC50 (HCT116 spheroids; Example 8, spheroid, read-out: Cell line: HCT116 Colony forming endpoint Surviving Fraction EC50): 0.5 to 1 µM
EC50 (HCT116 spheroids; Example 9 Study 2, read-out: Spheroid Cell line: HCT116 Colony forming endpoint Surviving Fraction EC50): 0.5 to 1 µM

IC50 ([3]; Table 1): 0.1 to 1 µM
EC50 [1, 6]: 1 to 10 µM
EC50 [1, 7]: 1 to 10 µM
EC50 [1, 8]: 1 to 10 µM
IC50 (DNA-PK; Table 1): 0.0005 to 0.001 µM
EC50 [2, 9]: 1 to 10 µM
EC50 [2, 10]: 1 to 10 µM
Microsomal Stability (mouse) % rem. 60 min ([4]; 60 min): E (% remaining = 0-25%)
microsomal CLint at 0.1 uM ([4]; male, CD-1, mouse, liver microsomes, pH 7.4, Microsomal Stability Mouse Clint, 0.1 mg/mL microsomes, 0.1 uM compound): > 116 µL/min/mg
Structure (SMILES): Nc1cnc2cc(N3CCOCC3)nc(O[C@H]3CC[C@@H](n4ccnc4)CC3)c2c1 [Compound 160, 5-(((1s,4s)-4-(1H-imidazol-1-yl)cyclohexyl)oxy)-7-morpholino-1,6-naphthyridin-3-amine]

Fraction of prodrug converted to active form, Hypoxic 0.2% O2 (FaDu cell line): B (B is 0.05 to 0.15)
Fraction of prodrug converted to active form, Oxic 5% O2 (FaDu cell line): D (D is 0 to 0.02)
IC50 (DNA-PK; Table 2): 0.01 to 0.15 µM
Structure (SMILES): Cn1c(CN(c2cnc3cc(N4CCOCC4)nc(OC4CCC(Nc5ncccn5)CC4)c3c2)S(C)(=O)=O)cnc1[N+](=O)[O-] (stereo not drawn) [LFA008, N-[(3-Methyl-2-nitro-imidazol-4-yl)methyl]-N-[7-morpholino-5-[4-(pyrimidin-2-ylamino)cyclohexoxy]-1,6-naphthyridin-3-yl]methanesulfonamide]
EC50 [5, 11]: 0.01 to 0.5 µM
EC50 [5, 12]: 0.5 to 1 µM
EC50 [5, 13]: 1 to 10 µM

IC50 ([3]; Table 2): 10 to 30 µM
Fraction of prodrug converted to active form, Hypoxic 0.2% O2 (FaDu cell line): B (B is 0.05 to 0.15)
Fraction of prodrug converted to active form, Oxic 5% O2 (FaDu cell line): D (D is 0 to 0.02)
IC50 (DNA-PK; Table 2): 0.01 to 0.15 µM
Structure (SMILES): Cn1c(CN(c2cnc3cc(N4CCOCC4)nc(OC4CCC(n5ccnc5)CC4)c3c2)S(C)(=O)=O)cnc1[N+](=O)[O-] (stereo not drawn) [LFA018, N-[5-(4-Imidazol-1-ylcyclohexoxy)-7-morpholino-1,6-naphthyridin-3-yl]-N-[(3-methyl-2-nitro-imidazol-4-yl)methyl]methanesulfonamide]
EC50 [5, 11]: 1 to 10 µM
EC50 [5, 12]: 1 to 10 µM
EC50 [5, 13]: 1 to 10 µM

Fraction of prodrug converted to active form, Hypoxic 0.2% O2 (FaDu cell line): B (B is 0.05 to 0.15)
Fraction of prodrug converted to active form, Oxic 5% O2 (FaDu cell line): D (D is 0 to 0.02)
Structure (SMILES): Cn1c(CN(c2cnc3cc(N4CCOCC4)nc(OC4CCC(Nc5ccn6nccc6n5)CC4)c3c2)S(C)(=O)=O)cnc1[N+](=O)[O-] (stereo not drawn) [LFA035, N-[(3-Methyl-2-nitro-imidazol-4-yl)methyl]-N-[7-morpholino-5-[4-(pyrazolo[1,5-a]pyrimidin-5-ylamino)cyclohexoxy]-1,6-naphthyridin-3-yl]methanesulfonamide]
EC50 [5, 11]: 0.01 to 0.5 µM
EC50 [5, 12]: 1 to 10 µM
EC50 [5, 13]: 1 to 10 µM

Fraction of prodrug converted to active form, Hypoxic 0.2% O2 (FaDu cell line): A (A is 0.15 to 1)
Fraction of prodrug converted to active form, Oxic 5% O2 (FaDu cell line): D (D is 0 to 0.02)
Structure (SMILES): CC(c1cnc([N+](=O)[O-])n1C)N(c1cnc2cc(N3CCOCC3)nc(OC3CCC(Nc4ccn5nccc5n4)CC3)c2c1)S(C)(=O)=O (stereo not drawn) [LFA036, N-[1-(3-Methyl-2-nitro-imidazol-4-yl)ethyl]-N-[7-morpholino-5-[4-(pyrazolo[1,5-a]pyrimidin-5-ylamino)cyclohexoxy]-1,6-naphthyridin-3-yl]methanesulfonamide]
EC50 [5, 11]: 0.01 to 0.5 µM
EC50 [5, 12]: 0.5 to 1 µM
EC50 [5, 13]: 10 to 100 µM

Fraction of prodrug converted to active form, Hypoxic 0.2% O2 (FaDu cell line): D (D is 0 to 0.02)
Fraction of prodrug converted to active form, Oxic 5% O2 (FaDu cell line): D (D is 0 to 0.02)
Structure (SMILES): Cn1c(Cn2cnc(-c3cnc4cc(N5CCOCC5)nc(OC5CCC(Nc6ncccn6)CC5)c4c3)n2)cnc1[N+](=O)[O-] (stereo not drawn) [LFA138]
EC50 [5, 14]: 1 to 10 µM
EC50 [5, 15]: 1 to 10 µM
EC50 [5, 16]: 1 to 10 µM
EC50 [5, 17]: 0.01 to 0.5 µM

Fraction of prodrug converted to active form, Hypoxic 0.2% O2 (FaDu cell line): B (B is 0.05 to 0.15)
Fraction of prodrug converted to active form, Oxic 5% O2 (FaDu cell line): D (D is 0 to 0.02)
Structure (SMILES): Cn1c(Cn2ncnc2-c2cnc3cc(N4CCOCC4)nc(O[C@H]4CC[C@@H](Nc5ncccn5)CC4)c3c2)cnc1[N+](=O)[O-] [LFA139]
EC50 [5, 14]: 0.5 to 1 µM
EC50 [5, 15]: 0.5 to 1 µM
EC50 [5, 16]: 1 to 10 µM
EC50 [5, 17]: 0.01 to 0.5 µM

Source: patent US20240246960A1 (adMare Therapeutics Society, priority 2021, published 2024)
